Laboratory results taken from US20260207798A1, “CYCLIC PEPTIDES AS PET IMAGING AGENTS OF GRANZYME B” (priority 2022, published 2026).
Where two headings read alike, the source gives them in different places. Numbered stars: 1 amine (or outer) side, 2 acyl side, 3 side chain; on linkers, the order of the positions; unused ones are H or OH. Bridge positions count the residues as written; N and C are the ends. Square brackets hold non-standard residues; d marks the D form. Peptide text beside a SMILES is read from it. I, II: the chains in the order shown. * marks the point of attachment. X4 = O=C(O)CN1CCN(CC(=O)O)CC(Cc2ccc(NC(=S)NCCC(=O)N(CCOCCOCCOCCOCCC(=O)[*:1])CCOCCOCCOCCOCCC(=O)[*:2])cc2)N(CC(=O)O)CC1; Pro(trans-4-F) = O=C(O)[C@@H]1C[C@@H](F)CN1; Propionyl = CCC(=O)*

Target: human Granzyme B (hGranzyme B) (Homo sapiens, UniProt P10144)
Assay: Surface plasmon resonance (SPR) binding kinetics to hGranzyme B
Protocol: The kinetics of test peptide binding to human Granzyme B (hGranzyme B) was determined by SPR. All experiments were performed at 25° C. using the Biacore 8k+ instrument (Cytiva, Marlborough, MA). The Biacore 8k+ Insight Evaluation Software Version 3.0 was used to fit the data with a 1:1 binding model to determine the association rate constant ka (M^−1s^−1, where “M” ~equals molar and “s” ~equals seconds) and the dissociation rate constant kd (s^−1). These rate constants were used to calculate the equilibrium dissociation constant. KD (M)=kd/ka.
To measure the binding kinetics of peptides of interest, surfaces were prepared by a capture method to a Series S Streptavidin (SA) chip using a 1×HBS-EP+ running buffer (Cytiva). hGranzyme B was diluted to 10 μg/mL in IX HBS-EP+ and flowed over spot 2 of each flow cell on the chip at a flow rate of 10 ul/min for 20 s to achieve a level of capture of ~1100 RU. An unmodified spot 1 of each flow cell was used as a matrix binding control or reference surface. Binding kinetics were measured using single cycle kinetics at 25° C. by injecting 5 concentrations with 3-fold serial dilutions of test peptides from 0.01 μM to 1 μM. Compound dilutions were performed manually in a running buffer containing 1×HBS-EP+(Cytiva), and a final concentration of 2% DMSO. The interaction analyses over hGranzyme B, were performed using a 120 s association time and a 900 s dissociation time. All experiments were conducted at a flow rate of 50 μL/min with a data collection rate of 10 Hz.
Peptide dilution series included 2 zero concentration points (no compound) which were averaged and subtracted from the peptide concentration injection as DMSO control responses. Binding data acquired from the reference surface (matrix binding control) were subtracted from the binding data for hGranzyme B surface on the chip to determine specific binding. Next, the association phase data were solvent corrected to account for any signal fluctuation throughout the experiment due to subtle DMSO concentration differences. Corrected response data were analyzed using the Biacore 8k+ Evaluation Software Version 3.0 according to the manufacturer. SPR data for representative compounds of the disclosure are found in Table 8.

[1] = 25° C., 1:1 binding model, KD=kd/ka, read-out: Granzyme B SPR Kd

Compound: C[C@@H]1NC(=O)[C@H](CO)NC(=O)[C@H](CCC(N)=O)NC(=O)[C@H](CC(=O)O)NC(=O)[C@H](CCC(=O)O)NC(=O)[C@H](Cc2ccccc2)NC(=O)[C@H](CC(N)=O)NC(=O)[C@H](Cc2ccccc2)NC(=O)CSC[C@@H](C(=O)NCC(=O)NCC(=O)N[C@H](CCCCNC(=O)CCOCCOCCOCCOCCN(CCOCCOCCOCCOCCC(=O)NCCCC[C@@H](NC(=O)CNC(=O)CNC(=O)[C@@H]2CSCC(=O)N[C@@H](Cc3ccccc3)C(=O)N[C@@H](CC(N)=O)C(=O)N[C@@H](Cc3ccccc3)C(=O)N[C@@H](CCC(=O)O)C(=O)N[C@@H](CC(=O)O)C(=O)N[C@@H](CCC(N)=O)C(=O)N[C@@H](CO)C(=O)N[C@@H](C)C(=O)N[C@@H](CC(=O)O)C(=O)N[C@@H]([C@@H](C)O)C(=O)N[C@@H](Cc3c[nH]c4ccccc34)C(=O)N[C@@H](CCC(N)=O)C(=O)N3CCC[C@H]3C(=O)N2)C(N)=O)C(=O)CCNC(=S)Nc2ccc(CC3CN(CC(=O)O)CCN(CC(=O)O)CCN3CC(=O)O)cc2)C(N)=O)NC(=O)[C@@H]2CCCN2C(=O)[C@H](CCC(N)=O)NC(=O)[C@H](Cc2c[nH]c3ccccc23)NC(=O)[C@H]([C@@H](C)O)NC(=O)[C@H](CC(=O)O)NC1=O (stereo partly drawn) [Compound 8a, (*F.N.F.E.D.Q.S.A.D.T.W.Q.P.*C.G.G.K.NH2)-bis(PEG4)-β-Ala(NOTA-1)-(*F.N.F.E.D.Q.S.A.D.T.W.Q.P.*C.G.G.K.NH2)] (I: {CH2CO}-FNFEDQSADTWQPCGG[dK]-NH2 / II: {CH2CO}-FNFEDQSADTWQPCGG[dK]-NH2; linker I:17-II:17 via X4; thioether I:N-I:14, II:N-II:14)
- Kd: < 0.1 nM

Compound: CCC(=O)NCCCC[C@H](NC(=O)CNC(=O)CNC(=O)[C@@H]1CSCC(=O)N[C@@H](Cc2ccccc2)C(=O)N[C@@H](CC(N)=O)C(=O)N[C@@H](Cc2ccccc2)C(=O)N[C@@H](CCC(=O)O)C(=O)N[C@@H](CC(=O)O)C(=O)N[C@@H](CCC(N)=O)C(=O)N[C@@H](CO)C(=O)N2C[C@H](F)C[C@H]2C(=O)N[C@@H](CC(=O)O)C(=O)N[C@@H]([C@@H](C)O)C(=O)N[C@@H](Cc2c[nH]c3ccccc23)C(=O)N[C@@H](CCC(N)=O)C(=O)N2CCC[C@H]2C(=O)N1)C(N)=O [Compound 14a, *F.N.F.E.D.Q.S.Prot4F.D.T.W.Q.P.*C.G.G.K(Prop).NH2] ({CH2CO}-FNFEDQS[Pro(trans-4-F)]DTWQPCGGK(Propionyl)-NH2; thioether N-14)
- Kd [1]: 5.1 nM

Compound: CCC(=O)NCCCC[C@H](NC(=O)CNC(=O)CNC(=O)[C@@H]1CSCC(=O)N[C@@H](Cc2ccccc2)C(=O)N[C@@H](CC(N)=O)C(=O)N[C@@H](Cc2ccccc2)C(=O)N[C@@H](CCC(=O)O)C(=O)N[C@@H](CC(=O)O)C(=O)N[C@@H](CCC(N)=O)C(=O)N[C@@H](CO)C(=O)N2CCC[C@H]2C(=O)N[C@@H](CC(=O)O)C(=O)N[C@@H]([C@@H](C)O)C(=O)N[C@@H](Cc2c[nH]c3ccccc23)C(=O)N[C@@H](CCC(N)=O)C(=O)N2CCC[C@H]2C(=O)N1)C(N)=O [Compound 15a, *F.N.F.E.D.Q.S.P.D.T.W.Q.P.*C.G.G.K(Prop).NH2] ({CH2CO}-FNFEDQSPDTWQPCGGK(Propionyl)-NH2; thioether N-14)
- Kd [1]: 3.7 nM
